Results on 22 compounds are retold here after BindingDB's records for doi:10.1021/jm00046a026 (Virginia Commonwealth University, 1994).

A short description of assay [1]: Inhibition against mu receptor from displacement studies using 0.5 nM [3H]-DAMGO in rhesus monkey cortex membrane.
Assay [2] in a line: Inhibition against delta receptor from displacement studies using 1.5 nM [3H]DPDPE in rhesus monkey cortex membrane.
The nature of assay [3]: Inhibition against kappa receptor from displacement studies using 1.5 nM [3H]U-69593 in rhesus monkey cortex membrane.
The nature of assay [4]: Inhibition against sigma receptor using displacement of 3 nM [3H]pentazocine in homogenate of guinea pig brain cerebellum.

The Ki is the dissociation constant of the complex between target and ligand, obtained from inhibition or displacement.

Take `CCCCCCCN1CC[C@]2(C)c3cc(O)ccc3CC1[C@@H]2C` [(6S,11R)-3-Heptyl-6,11-dimethyl-1,2,3,4,5,6-hexahydro-2,6-methano-benzo[d]azocin-8-ol]: the Ki in assay [1] is 27 nM; in assay [2], 57 nM; in assay [3] it was 32 nM; in assay [4], 49 nM.

Consider `CCCCCN1CC[C@]2(C)c3cc(O)ccc3CC1[C@@H]2C` [(6S,11R)-6,11-Dimethyl-3-pentyl-1,2,3,4,5,6-hexahydro-2,6-methano-benzo[d]azocin-8-ol], for which the Ki worked out at 15 nM in assay [1], 98 nM in assay [2] and 23 nM in assay [3].

Turning to `CCCN1CC[C@@]2(C)c3cc(O)ccc3CC1[C@H]2C` [(6R,11S)-6,11-Dimethyl-3-propyl-1,2,3,4,5,6-hexahydro-2,6-methano-benzo[d]azocin-8-ol], the Ki in assay [1] amounted to 943 nM; in assay [2] it was 7000 nM; in assay [3], 452 nM; in assay [4], 43 nM.

Take `CCCCN1CC[C@@]2(C)c3cc(O)ccc3CC1[C@H]2C` [(6R,11S)-3-Butyl-6,11-dimethyl-1,2,3,4,5,6-hexahydro-2,6-methano-benzo[d]azocin-8-ol]: the Ki in assay [1] came to 1240 nM; in assay [2], 7000 nM; in assay [3], 783 nM; in assay [4], 6 nM.

On to `CCN1CC[C@]2(C)c3cc(O)ccc3CC1[C@@H]2C` [(6S,11R)-3-Ethyl-6,11-dimethyl-1,2,3,4,5,6-hexahydro-2,6-methano-benzo[d]azocin-8-ol], for which the Ki in assay [1] was 16 nM; in assay [2] it was 158 nM; in assay [3] it was 16 nM; in assay [4] it was 16600 nM.

For `CCCCCCCCCN1CC[C@]2(C)c3cc(O)ccc3CC1[C@H]2C` [(6S,11S)-6,11-Dimethyl-3-nonyl-1,2,3,4,5,6-hexahydro-2,6-methano-benzo[d]azocin-8-ol], the Ki turned out to be 126 nM in assay [1], 2930 nM in assay [2], 2260 nM in assay [3] and 12 nM in assay [4].

Take `C[C@@H]1C2Cc3ccc(O)cc3[C@]1(C)CCN2C` [(6R,11S)-3,6,11-Trimethyl-1,2,3,4,5,6-hexahydro-2,6-methano-benzo[d]azocin-8-ol]: the Ki in assay [1] was determined as 1380 nM; in assay [2] it was 7000 nM; in assay [3] it was 3780 nM; in assay [4] it was 1330 nM.

With `CCCCCN1CC[C@@]2(C)c3cc(O)ccc3CC1[C@H]2C` [(6R,11S)-6,11-Dimethyl-3-pentyl-1,2,3,4,5,6-hexahydro-2,6-methano-benzo[d]azocin-8-ol], the Ki in assay [1] was found to be 776 nM; in assay [2], 7000 nM; in assay [3] it was 738 nM.

Consider `CCCCCCN1CC[C@]2(C)c3cc(O)ccc3CC1[C@@H]2C` [(6S,11R)-3-Hexyl-6,11-dimethyl-1,2,3,4,5,6-hexahydro-2,6-methano-benzo[d]azocin-8-ol], for which the Ki in assay [1] was 39 nM; in assay [2], 67 nM; in assay [3], 43 nM; in assay [4], 40 nM.

With `CCCCCCCCN1CC[C@]2(C)c3cc(O)ccc3CC1[C@@H]2C` [(6S,11R)-6,11-Dimethyl-3-octyl-1,2,3,4,5,6-hexahydro-2,6-methano-benzo[d]azocin-8-ol], the Ki came to 59 nM in assay [1], 114 nM in assay [2], 77 nM in assay [3] and 35 nM in assay [4].

As for `C[C@H]1C2Cc3ccc(O)cc3[C@@]1(C)CCN2` [(6S,11R)-6,11-Dimethyl-1,2,3,4,5,6-hexahydro-2,6-methano-benzo[d]azocin-8-ol], the Ki in assay [2] came out at 449 nM; in assay [3], 113 nM; in assay [4], 6750 nM.

As for `CCCCCCCCN1CC[C@]2(C)c3cc(O)ccc3CC1[C@H]2C` [(6S,11S)-6,11-Dimethyl-3-octyl-1,2,3,4,5,6-hexahydro-2,6-methano-benzo[d]azocin-8-ol], the Ki in assay [1] is 160 nM; in assay [2], 1590 nM; in assay [3] it was 2260 nM; in assay [4] it was 2.8 nM.

As for `CCCCCCCN1CC[C@]2(C)c3cc(O)ccc3CC1[C@H]2C` [(6S,11S)-3-Heptyl-6,11-dimethyl-1,2,3,4,5,6-hexahydro-2,6-methano-benzo[d]azocin-8-ol], the inhibition constant Ki is 259 nM in assay [1], 7000 nM in assay [2], 723 nM in assay [3] and 1.9 nM in assay [4].

For the compound `CCCCCCCCCCN1CC[C@]2(C)c3cc(O)ccc3CC1[C@H]2C` [(6S,11S)-3-Decyl-6,11-dimethyl-1,2,3,4,5,6-hexahydro-2,6-methano-benzo[d]azocin-8-ol], the Ki in assay [1] was determined as 756 nM; in assay [3], 2260 nM; in assay [4], 69 nM.

For `C[C@@H]1C2Cc3ccc(O)cc3[C@]1(C)CCN2` [(6R,11S)-6,11-Dimethyl-1,2,3,4,5,6-hexahydro-2,6-methano-benzo[d]azocin-8-ol], the Ki in assay [1] turned out to be 1720 nM; in assay [2], 7000 nM; in assay [3], 3780 nM; in assay [4], 2730 nM.

Consider `CCCCCCCCCCN1CC[C@]2(C)c3cc(O)ccc3CC1[C@@H]2C` [(6S,11R)-3-Decyl-6,11-dimethyl-1,2,3,4,5,6-hexahydro-2,6-methano-benzo[d]azocin-8-ol], for which the Ki in assay [1] amounted to 997 nM; in assay [2], 2580 nM; in assay [3], 2260 nM; in assay [4] it was 38 nM.

As for `CCCN1CC[C@]2(C)c3cc(O)ccc3CC1[C@@H]2C` [(6S,11R)-6,11-Dimethyl-3-propyl-1,2,3,4,5,6-hexahydro-2,6-methano-benzo[d]azocin-8-ol], the Ki in assay [1] stood at 1.5 nM; in assay [2], 37 nM; in assay [3], 2 nM; in assay [4] it was 739 nM.

In the case of `CCCCCCCCCN1CC[C@]2(C)c3cc(O)ccc3CC1[C@@H]2C` [(6S,11R)-6,11-Dimethyl-3-nonyl-1,2,3,4,5,6-hexahydro-2,6-methano-benzo[d]azocin-8-ol], the Ki in assay [1] turned out to be 183 nM; in assay [2], 464 nM; in assay [3], 709 nM; in assay [4], 32 nM.

`C[C@H]1C2Cc3ccc(O)cc3[C@@]1(C)CCN2C` [(6S,11R)-3,6,11-Trimethyl-1,2,3,4,5,6-hexahydro-2,6-methano-benzo[d]azocin-8-ol]: the Ki was found to be 4.2 nM in assay [1], 152 nM in assay [2], 17 nM in assay [3] and 18100 nM in assay [4].

Regarding `CCCCN1CC[C@]2(C)c3cc(O)ccc3CC1[C@@H]2C` [(6S,11R)-3-Butyl-6,11-dimethyl-1,2,3,4,5,6-hexahydro-2,6-methano-benzo[d]azocin-8-ol], the Ki was determined as 3.4 nM in assay [1], 78 nM in assay [2], 4.9 nM in assay [3] and 104 nM in assay [4].

On to `CCN1CC[C@@]2(C)c3cc(O)ccc3CC1[C@H]2C` [(6R,11S)-3-Ethyl-6,11-dimethyl-1,2,3,4,5,6-hexahydro-2,6-methano-benzo[d]azocin-8-ol], for which the Ki was found to be 7000 nM in assay [2], 3780 nM in assay [3] and 1090 nM in assay [4].

As to `CCCCCCN1CC[C@@]2(C)c3cc(O)ccc3CC1[C@H]2C` [(6R,11S)-3-Hexyl-6,11-dimethyl-1,2,3,4,5,6-hexahydro-2,6-methano-benzo[d]azocin-8-ol], the Ki is 318 nM in assay [1], 2260 nM in assay [3] and 2.3 nM in assay [4].
